{"source": "patent US5310667A", "about": "(priority 1989, dated 1994)", "key": {"[1]": {"system": "tobacco plants transformed with glyphosate-tolerant petunia EPSP synthase gene (pMON567)", "test": "Relative effect of glyphosate spraying on transformed tobacco", "type": "in vivo, Nicotiana tobacam CV H425", "design": "key: 0 = total kill, 10 = normal unsprayed plant", "settings": "GT, 0 total kill, 10 no effect, best transformant", "method": "Plasmid pMON530 DNA was digested with BglII and ClaI, to which was added the 330 bp BglII-EcoRI EPSP synthase 5' fragment from pMON536 and purified 1.4 kb EcoRI-ClaI EPSP synthase 3' fragment from pMON9566 and then treated with T4 DNA ligase. Following transformation a plasmid was isolated that carried the intact glycine (101) to alanine variant EPSP synthase coding sequence of petunia (with the coding sequence for the chloroplast transmit peptide) adjacent to the CaMV35S promoter. This plasmid was designated pMON567. Plasmid pMON567 was inserted into A. tumefaciens cells that contained helper plasmid pGV3111-SE.\nA culture of A. tumefaciens cells containing pMON567/pGV3111-SE was contacted with leaf disks taken from tobacco plants (Nicotiana tobacam CV H425) as described by Horsch (1985). The Agrobacterium cells inserted the variant EPSP synthase gene into the chromosomes of the plant cells. Plant cells resistant to kanamycin were selected and regenerated into differentiated plants by the procedure of Horsch (1985).\nProgeny of these plants were propagated and grown to a rosette diameter of about 10 cm corresponding to a plant age of about four weeks. The plants were sprayed with glyphosate at levels corresponding to 0.4, 2.0 and 3.6 pounds acid equiv./acre. The effect of glyphosate on the transformed plants were scored at 7, 14 and 28 days. The effect was translated to a numerical scale of 0-10 in which 0 represents total kill and 10 is the normal, unsprayed plant. […] The values represent the best transformant for both wild-type EPSP synthase and glyphosate-tolerant EPSP synthase genes."}, "[2]": {"system": "bacteria harboring pMON342 or pMON9566 (double pL promoter, petunia EPSP synthase)", "test": "Glyphosate tolerance of bacteria in growth media", "type": "cell-based, E. coli", "settings": "very high expression of the enzyme", "method": "The double pL promoter used to express the petunia EPSP synthase in pMON342 and pMON9566 leads to a very high level of expression of the enzyme. The enzyme is present at such high concentration that bacteria harboring either of these plasmids are tolerant to very high levels of glyphosate ([…]) in growth media, even though the enzyme produced by pMON342 is the wild type form. […] A plasmid for identifying such a promoter was constructed as follows: pMON9544, the precursor to pMON342, was digested with BamHI to remove the pL promoters, and was recircularized by ligation resulting in pMON362. The EcoRI fragment of pMON9556 containing the 3'-cDNA portion of the petunia EPSPS cDNA was then inserted into the EcoRI site of this plasmid reconstituting the entire coding sequence. The resulting plasmid, pMON364 is identical to pMON342 except that there is no promoter 5' of the EPSP synthase coding sequence."}, "[3]": {"biological_target": "T1, variant petunia EPSP synthase with glycine (101) to alanine and glycine (144) to asparagine substitutions (Petunia hybrida, UniProt P11043, G173A/G216N)", "T1 construct": "GGT codon for glycine (144) in the mature petunia EPSP synthase", "T1 sequence (P11043 73-516 G173A/G216N)": "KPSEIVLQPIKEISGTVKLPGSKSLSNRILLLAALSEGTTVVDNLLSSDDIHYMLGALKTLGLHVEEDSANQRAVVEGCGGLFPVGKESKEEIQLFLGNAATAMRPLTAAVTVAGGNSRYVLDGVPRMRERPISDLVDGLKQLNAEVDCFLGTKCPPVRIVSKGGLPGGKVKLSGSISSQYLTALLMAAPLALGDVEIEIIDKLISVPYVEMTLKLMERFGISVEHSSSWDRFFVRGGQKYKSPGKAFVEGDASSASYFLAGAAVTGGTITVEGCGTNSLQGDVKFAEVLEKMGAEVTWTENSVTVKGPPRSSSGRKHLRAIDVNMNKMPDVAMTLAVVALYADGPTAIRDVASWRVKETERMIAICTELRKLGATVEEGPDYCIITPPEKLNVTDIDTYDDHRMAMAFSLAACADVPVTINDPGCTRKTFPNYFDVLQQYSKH", "test": "EPSP synthase kinetic constants (Ki glyphosate, Km PEP)", "type": "biochemical", "method": "Kinetic constants (appKm PEP and appKi glyphosate) were determined for EPSP synthase as described below. Substrate kinetic parameters were determined at pH 7.0 in 50 mM HEPES (N-[2-hydroxyethyl]piperazine-N'-[2-ethanesulfonic acid]) buffer in the presence of 2 mM S3P and varying amounts of ^14 C-PEP (10 μM-400 μM), for 2.0 minutes at 25° C. Reactions were quenched with 100 mM Na Acetate in ethanol, pH 4.5, centrifuged and analyzed for product EPSP formation by HPLC with flow radioactivity detection. HPLC conditions were 0.35 MKPi, pH 6.5, on a Synchropak AX100 column at 1.0 ml/min."}, "[4]": {"system": "E. coli SR481 (aroA-) carrying pMON8152", "test": "Growth on minimal medium containing glyphosate", "type": "cell-based", "method": "The heterologous expression system was tested with a known variant to see if glyphosate resistant variants of petunia EPSPS could be selected. […] That was achieved by replacing the 660 bp EcoRI-HindIII region from both vectors with the 660 bp EcoRI-HindIII region from pMON9566 which contained the glycine (101) to alanine mutation."}, "[5]": {"system": "petunia leaf disks transformed with pMON546 (CaMV35S/EPSP synthase gene)", "test": "Leaf disk callus growth on glyphosate media", "type": "cell-based", "settings": "within 10 days", "method": "(§1) Leaf disks with diameters of 6 mm (1/4 inch) were taken from surface-sterilized petunia leaves. They were cultivated on MS104 agar medium for 2 days to promote partial cell wall formation at the wound surfaces. They were then submerged in a culture of A. tumefaciens cells containing both pMON546 and GV3111-SE which had been grown overnight in Luria broth at 28° C., and shaken gently. The cells were removed from the bacterial suspension, blotted dry, and incubated upside down on filter paper placed over \"nurse\" cultures of tobacco cells, as described by Horsch (1980). After 2 or 3 days, the disks were transferred to petri dishes containing MS media with 500 μg/ml carbenicillin and 0. 0.1, 0.25, or 0.5 mM glyphosate (sodium salt), with no nurse cultures.\n(§2) Control tissue was created using A. tumefaciens cells containing the helper plasmid pGV3111-SE and a different plant transformation vector, pMON505, which contained a T-DNA region with a NOS/NPTII/NOS kanamycin resistance gene and a NOS selectable marker gene identical to pMON546, but without the CaMV35S/EPSP synthase gene."}, "[6]": {"system": "control petunia leaf disks (pMON505)", "test": "Leaf disk callus growth on glyphosate media", "type": "cell-based", "settings": "within 10 days", "method": "as §1, §2"}, "[7]": {"biological_target": "petunia EPSP synthase with alanine for the first glycine of the conserved region (Petunia hybrida, UniProt P11043, G170A)", "sequence (P11043 73-516 G170A)": "as the sequence (P11043 73-516 G173A/G216N) above, with G98A, A101G, N144G counted along it", "test": "Glyphosate sensitivity of EPSP synthase variant", "type": "biochemical", "settings": "relative to wild type"}, "[8]": {"settings": "0.1 mM glyphosate (sodium salt)"}, "[9]": {"settings": "0.25 mM glyphosate (sodium salt)"}, "[10]": {"settings": "0.5 mM glyphosate (sodium salt)"}}, "data": [{"compound": "O=C(O)CNCP(=O)(O)O", "note": "[glyphosate, N-phosphonomethylglycine]", "values": [{"measurement": "Relative Effect of Glyphosate", "setting": "[1]; 0.4 pounds/Acre, day 7", "value": 8.0}, {"measurement": "Relative Effect of Glyphosate", "setting": "[1]; 0.4 pounds/Acre, day 14", "value": 8.0}, {"measurement": "Relative Effect of Glyphosate", "setting": "[1]; 0.4 pounds/Acre, day 28", "value": 9.0}, {"measurement": "Relative Effect of Glyphosate", "setting": "[1]; 2.0 pounds/Acre, day 7", "value": 8.0}, {"measurement": "Relative Effect of Glyphosate", "setting": "[1]; 2.0 pounds/Acre, day 14", "value": 8.3}, {"measurement": "Relative Effect of Glyphosate", "setting": "[1]; 2.0 pounds/Acre, day 28", "value": 7.0}, {"measurement": "Relative Effect of Glyphosate", "setting": "[1]; 3.6 pounds/Acre, day 7", "value": 5.0}, {"measurement": "Relative Effect of Glyphosate", "setting": "[1]; 3.6 pounds/Acre, day 14", "value": 7.4}, {"measurement": "Relative Effect of Glyphosate", "setting": "[1]; 3.6 pounds/Acre, day 28", "value": 7.0}, {"measurement": "level of glyphosate tolerated in growth media", "setting": "[2]", "value": "> 50", "unit": "µM"}, {"measurement": "Ki for glyphosate", "setting": "[3]", "value": 960, "unit": "µM"}, {"measurement": "Ki/Km", "setting": "[3]; Ki glyphosate / Km PEP", "value": 10.5}, {"measurement": "glyphosate concentration up to which growth on minimal medium is supported", "setting": "[4]", "value": "up to 50 mM"}, {"measurement": "callus growth", "setting": "[5]; [8]", "value": "little detectable difference between the control disks and the transformed tissue"}, {"measurement": "callus growth", "setting": "[5]; [9]", "value": "substantial growth of transformed tissue"}, {"measurement": "callus growth", "setting": "[5]; [10]", "value": "a significant number of calli grew"}, {"measurement": "callus growth", "setting": "[6]; [8]", "value": "little detectable difference between the control disks and the transformed tissue"}, {"measurement": "callus growth", "setting": "[6]; [9]", "value": "very little growth of callus"}, {"measurement": "callus growth", "setting": "[6]; [10]", "value": "no callus growth"}, {"measurement": "change in glyphosate sensitivity", "setting": "[7]", "value": "no attendant changes in glyphosate sensitivity"}]}]}
